Results reported in PMC2777267, “Crystal Structures of Wzb of Escherichia coli and CpsB of Streptococcus pneumoniae, Representatives of Two Families of Tyrosine Phosphatases that Regulate Capsule Assembly” (Journal of Molecular Biology, 2009).

Tests used:
Cps4B [1] = target: T1, Cps4B (Streptococcus pneumoniae, UniProt Q9AHD4); assay: absorbance at […] nm; type: biochemical; parameters: gene cpsB; recombinant, produced as described earlier; PHP-fold metal-dependent phosphatase with three active-site metals; 1 molecule per asymmetric unit; conditions: 25 mM Tris-Cl pH 8.0, 50 mM NaCl, 2.5 mM pNPP, room temperature; 0.5 mM Cu2+, Co2+ or Mn2+ added
Cps4B [2] = target: T1, Cps4B; parameters: gene cpsB; conditions: active site, bound to three metals, Arg139 and Arg206; soak up to 50 mM phosphate

T1 sequence (Q9AHD4 whole entry, looked up): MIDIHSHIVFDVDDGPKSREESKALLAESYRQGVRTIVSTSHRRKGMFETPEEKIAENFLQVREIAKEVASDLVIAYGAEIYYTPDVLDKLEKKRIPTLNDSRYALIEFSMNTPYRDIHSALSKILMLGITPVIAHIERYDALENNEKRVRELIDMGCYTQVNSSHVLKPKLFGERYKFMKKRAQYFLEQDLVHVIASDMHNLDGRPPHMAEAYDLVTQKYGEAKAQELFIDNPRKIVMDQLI

With `O=[N+]([O-])c1ccc(OP(=O)(O)O)cc1` [para-nitrophenylphosphate] the “absorbance at 405 nm” value (Cps4B [1]) was “it is a relatively poor catalyst with artificial substrate para-nitrophenylphosphate (pNPP)”.

In the case of `O=P(O)(O)O` [phosphate], the “X-ray crystal structure, 2.2 A, phosphate soak” value (Cps4B [2]) is reported as “The phosphate is tightly bound to the active site by a multitude of interactions”.
